How the values were obtained:
[1] = Cryopreserved hepatocyte stability; assay type: in vitro ADME; conditions: human hepatocytes 0.5 million cells/mL, 1 μM, 37° C.; compound remaining; time point not stated
Protocol: Hepatocyte stability assays were performed using pooled human cryopreserved hepatocytes. Test and control compounds (testosterone, midazolam, 4-methylumbelliferone), prepared in DMSO, were incubated at an initial concentration of 1 μM (0.25% DMSO final, n=2) with hepatocytes at cell densities of 0.5 million cells/mL for both species at 37° C. Aliquots were removed at 0, 10, 20, 45 and 90 minutes for termination of reactions and compound extraction with acetonitrile containing an analytical internal standard. Samples were centrifuged and the supernatant fractions analysed for parent compound by mass spectrometry (LC-MS/MS).
(§1) The amount of compound remaining (expressed as %) was determined from the MS response in each sample relative to that in the T=0 samples (normalised for internal standard).
Ln plots of the % remaining were used to determine the half-life for compound disappearance using the relationship: t½(min)=−0.693/λ where λ is the slope of the Ln % remaining vs time curve. Hepatic Microsomal Stability: Half-life/Intrinsic Clearance Format

[2] = Hepatic microsomal stability; assay type: in vitro ADME; conditions: human microsomes 0.5 mg protein/mL, NADPH, 1 μM, 37° C.; compound remaining; time point not stated
Protocol: Microsomal stability assays were performed using pooled hepatic microsomes from human. Test and control compounds (propranolol or dextromethorphan, midazolam), prepared in DMSO, were incubated at an initial concentration of 1 μM (0.25% DMSO final, n=2) with microsomes (0.5 mg protein/mL) at 37° C. in the presence of the cofactor, NADPH (1 mM). Aliquots were removed at 0, 5, 10, 20 and 40 minutes for termination of reactions and compound extraction with acetonitrile containing an analytical internal standard. Samples were centrifuged and the supernatant fractions analysed for parent compound by mass spectrometry (LC-MS/MS).
as §1
Ln plots of the % remaining were used to determine the half-life for compound disappearance using the relationship: t½(min)=−0.693/λ where λ is the slope of the Ln % remaining vs time curve.

[3] = target: T1, GABAA α5/β3/γ2 (Homo sapiens (Human), UniProt P18507+P31644); experiment: Functional assay (PatchXpress automated patch-clamp), α5 subtype; assay type: cell-based; conditions: % change of GABA EC20 response; compound 1 μM; HEK293 cells
Description: (§2) GABAA α5/β3/γ2 HEK293 cell line was used throughout the functional assay in PatchXpress (Molecular Devices), the automated patch-clamp system. Cells stably expressing the appropriate GABAA subtype (α5/β3/γ2, α1/β3/γ2, α2/β3/γ2 or α3/β3/γ2) were dissociated from poly-D-lysine treated tissue culture flasks using a mixture of one part TrypLE (Invitrogen, cat #12604): one part Dulbecco's Phosphate Buffered Saline (Invitrogen, cat #14190). The dissociated cells were re-suspended in growth media (D-MEM/F-12 media (Invitrogen, cat #11320) supplemented with 10% (v/v) Foetal Bovine Serum (Invitrogen, cat #10082) and 1% (v/v) non-essential amino acids (Invitrogen, cat #11140)) and allowed to recover for one hour at 37° C. in a humidified incubator with 5% CO2. At the end of the recovery period cells were centrifuged at 1,000 rpm for two minutes and the resulting pellet re-suspended in external solution (in mM; 137 NaCl, 4 KCl, 10 HEPES, 1.8 CaCl2, 1 MgCl2, 10 glucose, pH set to 7.35 with NaOH). Cells were counted and diluted to 2.5×10^6/ml in external solution. The patch-clamp assay protocol involved determination of current amplitude with control applications of GABA EC20 containing concentration-matched DMSO (0.3% v/v), then pre-incubation of the test compound for one minute prior to the addition of the same compound diluted with the GABA EC20. Compound and/or GABA was applied for five seconds, with two minute wash periods between applications. No wash period was present at the end of the compound pre-application stage. The internal solution comprised (in mM) 90 KCl, 50 KF, 11 EGTA, 10 HEPES, 1 MgCl2, 2 Mg-ATP, the pH was set to 7.35 with KOH and the holding potential was −60 mV. Compounds were assayed at a concentration of 1 μM.

[4] = target: T1, GABAA α5/β3/γ2; experiment: Binding assay (Scintillation Proximity Assay, [3H]-Ro15-1788); conditions: membranes of HEK293 cells expressing GABAA α5/β3/γ2
Protocol: The GABAAα5/β3/γ2 protein used for the Scintillation Proximity Assay was derived from membranes produced from HEK293 GABAA α5/β3/γ2 expressing HEK293 cell line. HEK293 GABAA α5/β3/γ2 expressing HEK293 cell line was cultured, then harvested and centrifuged the cells. Membranes were produced by homogenization of the cell pellet with a tissue homogenizer. The resulting homogenate was centrifuged at 48,000 g for 30 minutes, re-suspended and washed twice with 10 mM potassium phosphate buffer, pH 7.4. Final resuspension of membranes took place in buffer containing 10 mM potassium phosphate and 100 mM KCl.
For assay, test compound (50×) was added 0.5 μl per well to a white-walled clear-bottomed 384-well plate.
Full signal controls were prepared by the addition of 0.5 μl of DMSO to the appropriate wells. Mixture of 10 μl of protein and 10 μl of PVT-WGA beads (0.2 mg/well) were added to the plate. Both protein and bead were diluted to the desired concentration with 10 mM potassium phosphate, pH 7.4, containing 100 mM KCl. The plate was pre-incubated for 30 minutes at room temperature with shaking before initiation of the reaction by the addition of radioligand. 5 μl of [^3H]-Ro15-1788 was added at a concentration of 30 nM (5×) and the plates sealed. The reaction mix was incubated at room temperature overnight with gentle agitation on a plate shaker. The final DMSO concentration for all phases of the screening was 2% (v/v). At the end of the overnight incubation, the plates were centrifuged for two minutes at 1,000 rpm prior to reading on a Perkin Elmer Microbeta.
Concentration-response testing was performed in duplicate and the percent effect calculated for each replicate data point. The raw data was entered in Activity Base and the curves were fitted to the mean data using Excel and XL Fit, and shown as Ki.

[5] = target: GABAA α1/β3/γ2 (Homo sapiens (Human), UniProt P14867+P18507); experiment: Functional assay (PatchXpress automated patch-clamp), α1 subtype; assay type: cell-based; conditions: % change of GABA EC20 response; compound 1 μM; HEK293 cells
Description: as §2

GABAA α1/β3/γ2, sequence (P14867 28-456): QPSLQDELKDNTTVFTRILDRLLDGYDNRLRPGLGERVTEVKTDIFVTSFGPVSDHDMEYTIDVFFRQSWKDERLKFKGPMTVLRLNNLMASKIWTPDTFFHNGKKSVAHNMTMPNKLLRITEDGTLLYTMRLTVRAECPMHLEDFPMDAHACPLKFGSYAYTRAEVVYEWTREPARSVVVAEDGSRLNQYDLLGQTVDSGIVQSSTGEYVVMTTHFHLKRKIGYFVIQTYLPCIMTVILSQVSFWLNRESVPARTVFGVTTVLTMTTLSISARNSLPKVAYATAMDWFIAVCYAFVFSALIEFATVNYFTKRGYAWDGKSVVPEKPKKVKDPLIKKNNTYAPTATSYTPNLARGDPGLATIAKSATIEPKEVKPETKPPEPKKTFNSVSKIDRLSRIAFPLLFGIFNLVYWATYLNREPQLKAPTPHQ
GABAA α1/β3/γ2, sequence (P28472 26-473 partner): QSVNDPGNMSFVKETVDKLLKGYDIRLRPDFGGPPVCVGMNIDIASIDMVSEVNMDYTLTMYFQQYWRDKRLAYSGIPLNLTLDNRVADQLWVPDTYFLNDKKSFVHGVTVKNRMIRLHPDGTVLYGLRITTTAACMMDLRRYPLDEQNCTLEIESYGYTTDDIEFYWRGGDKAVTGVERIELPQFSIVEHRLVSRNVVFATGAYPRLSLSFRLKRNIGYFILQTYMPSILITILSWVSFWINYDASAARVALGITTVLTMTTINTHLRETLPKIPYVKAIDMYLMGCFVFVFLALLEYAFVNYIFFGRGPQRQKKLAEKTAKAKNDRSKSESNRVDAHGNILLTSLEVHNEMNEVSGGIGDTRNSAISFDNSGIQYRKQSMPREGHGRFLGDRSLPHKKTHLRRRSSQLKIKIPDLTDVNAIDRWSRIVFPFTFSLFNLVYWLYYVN
GABAA α1/β3/γ2, sequence (P18507 40-475): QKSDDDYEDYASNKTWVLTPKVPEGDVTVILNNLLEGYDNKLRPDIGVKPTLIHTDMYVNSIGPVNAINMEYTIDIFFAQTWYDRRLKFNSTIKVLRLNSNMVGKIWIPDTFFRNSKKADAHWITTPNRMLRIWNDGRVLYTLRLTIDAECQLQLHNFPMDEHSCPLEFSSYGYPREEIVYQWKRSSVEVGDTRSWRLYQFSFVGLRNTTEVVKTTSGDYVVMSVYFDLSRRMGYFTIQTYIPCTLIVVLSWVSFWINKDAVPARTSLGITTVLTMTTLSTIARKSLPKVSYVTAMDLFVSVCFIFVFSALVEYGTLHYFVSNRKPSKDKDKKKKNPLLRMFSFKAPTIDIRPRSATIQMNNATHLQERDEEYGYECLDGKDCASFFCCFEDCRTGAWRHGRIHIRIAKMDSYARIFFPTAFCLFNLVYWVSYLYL
T1 sequence (P31644 32-462): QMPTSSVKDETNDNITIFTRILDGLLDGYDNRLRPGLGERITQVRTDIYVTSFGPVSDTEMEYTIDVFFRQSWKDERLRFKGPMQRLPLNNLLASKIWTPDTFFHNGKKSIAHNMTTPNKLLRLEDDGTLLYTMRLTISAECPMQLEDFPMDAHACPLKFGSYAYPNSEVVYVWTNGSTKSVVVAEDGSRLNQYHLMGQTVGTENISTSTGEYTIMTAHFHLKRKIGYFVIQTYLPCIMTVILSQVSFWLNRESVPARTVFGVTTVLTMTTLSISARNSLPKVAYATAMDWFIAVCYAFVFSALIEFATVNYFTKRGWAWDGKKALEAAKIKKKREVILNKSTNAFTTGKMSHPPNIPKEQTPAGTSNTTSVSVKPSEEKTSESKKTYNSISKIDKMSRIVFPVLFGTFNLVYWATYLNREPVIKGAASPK
T1 sequence (P28472 26-473 partner): as the sequence (P28472 26-473 partner) above
T1 sequence (P18507 40-475): as the sequence (P18507 40-475) above

Row | Structure (SMILES) | hepatocyte stability (%) [1] [%] | microsomal stability (%) [2] [%] | inhibition at 1 µM [3] [%] | Ki [4] [nM] | inhibition at 1 µM [5] [%]
1 | Fc1cc(Nc2cc3c(ncn3CC3CC3)c(F)c2F)ccc1-n1ccnc1 [Example 95, 1-(Cyclopropylmethyl)-4,5-difluoro-N-(3-fluoro-4-(1H-imidazol-1-yl)phenyl)-1H-benzo[d]imidazol-6-amine] | 96 | 89 |  |  | 
2 | O=C1COc2cc(Nc3cc4c(cn3)ncn4CC3CC3)ccc2N1C1CC1 [Example 37, 4-Cyclopropyl-7-((1-(cyclopropylmethyl)-1H-imidazo[4,5-c]pyridin-6-yl)amino)-2H-benzo[b][1,4]oxazin-3(4H)-one] |  |  | 46 | 38.8 | -5
3 | Cc1cc(Nc2ccc3c(n2)OCC(=O)N3C)nc2c1ncn2CC1CC1 [Example 159, 6-((3-(Cyclopropylmethyl)-7-methyl-3H-imidazo[4,5-b]pyridin-5-yl)amino)-1-methyl-1H-pyrido[2,3-b][1,4]oxazin-2(3H)-one] |  |  | 46.7 | 6.4 | 4.8
4 | COCCN1C(=O)COc2cc(Nc3ncc4ncn(CC5CC5)c4n3)ccc21 [Example 46, 7-((9-(Cyclopropylmethyl)-9H-purin-2-yl)amino)-4-(2-methoxyethyl)-2H-benzo[b][1,4]oxazin-3(4H)-one] |  |  | 42.4 | 38 | -0.9
5 | Cc1c(F)c(Nc2ccc(-n3ccnc3)nc2)cc2c1ncn2CC1CC1 [Example 88, N-(6-(1H-Imidazol-1-yl)pyridin-3-yl)-1-(cyclopropylmethyl)-5-fluoro-4-methyl-1H-benzo[d]imidazol-6-amine] | 81 | 95 |  |  | 
6 | Cn1c(=O)oc2cc(Nc3cnc4ncn(CC5CC5)c4n3)ccc21 [Example 43, 6-((1-(Cyclopropylmethyl)-1H-imidazo[4,5-b]pyrazin-6-yl)amino)-3-methylbenzo[d]oxazol-2(3H)-one] |  |  | 55.1 | 42 | 8

Results, then the compound that gave them:

Row | hepatocyte stability (%) [1] [%] | microsomal stability (%) [2] [%] | inhibition at 1 µM [3] [%] | Ki [4] [nM] | inhibition at 1 µM [5] [%] | Structure (SMILES)
7 | 85 | 94 |  |  |  | Cc1nc(Nc2cnc3c(c2)OCC(=O)N3C)cc2c1ncn2CC1CC1 [Example 120, 7-((1-(Cyclopropylmethyl)-4-methyl-1H-imidazo[4,5-c]pyridin-6-yl)amino)-4-methyl-2H-pyrido[3,2-b][1,4]oxazin-3(4H)-one]
8 |  |  | 41.8 | 6.7 | 7.5 | CN1C(=O)COc2cc(Nc3cc4c(cc3F)ncn4CC3CC(F)(F)C3)cnc21 [Example 52, 7-((1-((3,3-Difluorocyclobutyl)methyl)-5-fluoro-1H-benzo[d]imidazol-6-yl)amino)-4-methyl-2H-pyrido[3,2-b][1,4]oxazin-3(4H)-one]
9 |  |  | 52.5 | 4.1 | -0.5 | CN1C(=O)COc2cc(Nc3cc4c(cc3F)ncn4CCC3CC3)cnc21 [Example 67, 7-((1-(2-Cyclopropylethyl)-5-fluoro-1H-benzo[d]imidazol-6-yl)amino)-4-methyl-2H-pyrido[3,2-b][1,4]oxazin-3(4H)-one]
10 |  |  | 55.9 | 24 | 0.2 | CN1C(=O)COc2cc(Nc3cnc4ncn(CC5CC5)c4n3)ccc21 [Example 42, 7-((1-(Cyclopropylmethyl)-1H-imidazo[4,5-b]pyrazin-6-yl)amino)-4-methyl-2H-benzo[b][1,4]oxazin-3(4H)-one]
11 | 103 | 76 |  |  |  | Cc1c(F)c(Nc2cc3c(cn2)N(C)C(=O)CO3)cc2c1ncn2CC1CC1 [Example 87, 7-((1-(Cyclopropylmethyl)-5-fluoro-4-methyl-1H-benzo[d]imidazol-6-yl)amino)-4-methyl-2H-pyrido[4,3-b][1,4]oxazin-3(4H)-one]
12 |  |  | 44.4 | 34.6 | -0.3 | CN1C(=O)COc2ncc(Nc3ccc4ncn(CC5CC5)c4n3)cc21 [Example 111, 7-((3-(Cyclopropylmethyl)-3H-imidazo[4,5-b]pyridin-5-yl)amino)-1-methyl-1H-pyrido[2,3-b][1,4]oxazin-2(3H)-one]
13 | 101 | 77 |  |  |  | CN1C(=O)COc2nc(Nc3cc(C(F)(F)F)c4ncn(CC5CC5)c4n3)ccc21 [Example 151, 6-((3-(Cyclopropylmethyl)-7-(trifluoromethyl)-3H-imidazo[4,5-b]pyridin-5-yl)amino)-1-methyl-1H-pyrido[2,3-b][1,4]oxazin-2(3H)-one]
14 | 75 | 72 |  |  |  | Cc1nc(Nc2ccc3c(n2)OCC(=O)N3C)cc2c1ncn2CC1CC1 [Example 124, 6-((1-(Cyclopropylmethyl)-4-methyl-1H-imidazo[4,5-c]pyridin-6-yl)amino)-1-methyl-1H-pyrido[2,3-b][1,4]oxazin-2(3H)-one]

Reference: patent US10016439B2, “Fused imidazole compounds” (ONO PHARMACEUTICAL CO., LTD., priority 2014, dated 2018)
